{
  "source": "patent US20260315475A1",
  "about": "(priority 2023, published 2026)",
  "key": {"pro-fibrotic signaling": {"test_system": "pro-fibrotic signaling", "conditions": "in vitro; cited from earlier work"}, "UGT1A9": {"test_system": "UGT1A9", "conditions": "role: inhibitor; in vitro; cited from earlier work"}, "CYP2D6 [1]": {"test_system": "CYP2D6", "conditions": "role: substrate; in vitro; cited from earlier work"}, "OATP1B1": {"test_system": "OATP1B1", "conditions": "role: inhibitor; clinically relevant concentrations, in vitro; cited from earlier work"}, "[2]": {"conditions": "200 and 400 mg; cited from earlier work"}, "P-gp [3]": {"test_system": "P-gp", "conditions": "role: inhibitor; clinically relevant concentrations, in vitro; cited from earlier work"}, "[4]": {"conditions": "single oral dose, radiolabeled, healthy subjects; cited from earlier work"}, "[5]": {"conditions": "age 18 to 77 years, weight 38.6 to 143 kg, mild to moderate renal impairment; cited from earlier work"}, "[6]": {"conditions": "275 mg/kg/day oral, cited from earlier work"}, "[7]": {"assay": "Changes in belumosudil exposure in subjects with hepatic impairment compared to subjects with normal hepatic function", "format": "in vivo, human", "conditions": "single 200 mg"}, "CYP2C19": {"test_system": "CYP2C19", "conditions": "role: inhibitor; in vitro; cited from earlier work"}, "[8]": {"assay": "Embryo-fetal development studies in rats", "format": "in vivo", "conditions": "rat", "procedure": "In the pilot study, maternal toxicity and embryo-fetal developmental effects were observed. Maternal toxicity (reduced body weight gain) occurred at 150 and 300 mg/kg/day doses. Increased post-implantation loss occurred at 50 and 300 mg/kg/day."}, "ROCK2": {"test_system": "ROCK2", "conditions": "cited from earlier work"}, "CYP2C8": {"test_system": "CYP2C8", "conditions": "role: substrate; in vitro; cited from earlier work"}, "ROCK1": {"test_system": "ROCK1", "conditions": "cited from earlier work"}, "[9]": {"conditions": "dogs; cited from earlier work"}, "[10]": {"conditions": "in vivo; cited from earlier work"}, "[11]": {"assay": "Safety and tolerability in the Phase I hepatic impairment study", "format": "in vivo, human", "source_text": "The secondary objectives were: to evaluate the safety and tolerability of a single oral dose of belumosudil in participants with mild, moderate, or severe hepatic impairment, and in healthy participants with normal hepatic function; to assess the PK of the belumosudil metabolites following a single oral dose of belumosudil in participants with mild, moderate, or severe hepatic impairment compared to healthy participants with normal hepatic function. […]\nThe secondary/safety endpoints were: incidence and severity of adverse events (AEs), clinical laboratory parameters (hematology, clinical chemistry, coagulation, and urinalysis), 12-lead electrocardiogram (ECG) parameters, vital signs parameters, and physical examinations.\nTreatment-emergent AEs (TEAEs) were summarized by severity and relationship to the investigational medicinal product (IMP). The frequency of TEAEs was summarized by Medical Dictionary for Regulatory Activities system organ class and preferred term, and hepatic function. Summary and frequency TEAE tables were presented for all causalities and for those considered related to the IMP.\nSerum biochemistry, hematology, and coagulation data were summarized by hepatic function. In addition, all serum biochemistry, hematology, and urinalysis data outside the clinical reference ranges were listed by parameter and treatment. Vital signs and ECG data were summarized by hepatic function, together with changes from baseline."}, "CYP3A4": {"test_system": "CYP3A4", "conditions": "role: substrate; in vitro; cited from earlier work"}, "rat bone marrow": {"test_system": "rat bone marrow", "conditions": "in vivo; cited from earlier work"}, "[12]": {"conditions": "pregnant rats, cited from earlier work"}, "P-gp [13]": {"test_system": "P-gp", "conditions": "role: substrate; in vitro; cited from earlier work"}, "bacteria": {"test_system": "bacteria", "conditions": "in vitro; cited from earlier work"}, "[14]": {"conditions": "cited from earlier work"}, "[15]": {"conditions": "single dose, high-fat high-calorie meal vs fasted, healthy subjects; cited from earlier work"}, "CYP2D6 [16]": {"test_system": "CYP2D6", "conditions": "role: inhibitor; in vitro; cited from earlier work"}, "[17]": {"conditions": "cited from earlier work", "remark": "listed apart in the source"}, "[18]": {"test_system": "human peripheral blood lymphocytes (HPBL)", "conditions": "in vitro; cited from earlier work"}, "CYP1A2": {"test_system": "CYP1A2", "conditions": "role: inhibitor; in vitro; cited from earlier work"}, "[19]": {"assay": "Embryo-fetal developmental study in rabbits", "format": "in vivo", "conditions": "rabbit"}, "[20]": {"conditions": "moderate (Child-Pugh B) vs normal"}, "[21]": {"conditions": "severe (Child-Pugh C) vs normal"}, "[22]": {"conditions": "moderate hepatic impairment group"}, "[23]": {"conditions": "healthy subjects, coadministered omeprazole"}, "[24]": {"conditions": "healthy subjects, coadministered rabeprazole"}, "[25]": {"conditions": "healthy subjects, coadministered rifampin"}},
  "note": "Read-outs that look alike come from different tables or passages of the source.",
  "data": [
    {"smiles": "CC(C)NC(=O)COc1cccc(-c2nc(Nc3ccc4[nH]ncc4c3)c3ccccc3n2)c1", "note": "[belumosudil, 2-{3-[4-(1H-indazol-5-ylamino)-2-quinazolinyl]phenoxy}-N-(propan-2-yl) acetamide]", "values": [
      {"measurement": "aberrant pro-fibrotic signaling", "setting": "pro-fibrotic signaling", "value": "inhibits aberrant pro-fibrotic signaling"},
      {"measurement": "UGT1A9 inhibition", "setting": "UGT1A9", "value": "inhibitor"},
      {"measurement": "metabolism by CYP2D6", "setting": "CYP2D6 [1]", "value": "to a lesser extent"},
      {"measurement": "OATP1B1 inhibition", "setting": "OATP1B1", "value": "inhibits"},
      {"measurement": "dose proportionality of Cmax and AUC", "setting": "[2]", "value": "increased in an approximately proportional manner"},
      {"measurement": "P-gp inhibition", "setting": "P-gp [3]", "value": "inhibits"},
      {"measurement": "radioactivity recovered in feces", "setting": "[4]", "value": 85, "unit": "%"},
      {"measurement": "radioactivity recovered in feces as unchanged", "setting": "[4]", "value": 30, "unit": "%"},
      {"measurement": "radioactivity recovered in urine", "setting": "[4]", "value": "less than 5%"},
      {"measurement": "differences in belumosudil pharmacokinetics by age, sex, weight, renal impairment", "setting": "[5]", "value": "No clinically significant differences"},
      {"measurement": "adverse findings in female rats (pre-/post-implantation loss, viable embryos)", "setting": "[6]", "value": "increased pre- or post-implantation loss and decreased number of viable embryos"},
      {"measurement": "fertility of treated males or females", "setting": "[6]", "value": "Fertility was reduced in both treated males or females"},
      {"measurement": "sperm findings", "setting": "[6]; male rats", "value": "abnormal sperm findings (reduced motility, reduced count, and increased percentage of abnormal sperm)"},
      {"measurement": "testes/epididymis organ changes", "setting": "[6]; male rats", "value": "reduced weight and degeneration"},
      {"measurement": "AUC change, free concentrations: decrease", "setting": "[7]; mild (Child-Pugh A) vs normal", "value": 19, "unit": "%"},
      {"measurement": "AUC change, total (free + bound): increase", "setting": "[7]; mild (Child-Pugh A) vs normal", "value": "1.4-fold"},
      {"measurement": "Cmax change, free concentrations: decrease", "setting": "[7]; mild (Child-Pugh A) vs normal", "value": 14, "unit": "%"},
      {"measurement": "Cmax change, total (free + bound): increase", "setting": "[7]; mild (Child-Pugh A) vs normal", "value": "1.2-fold"},
      {"measurement": "AUC change, free concentrations: increase", "setting": "[7]; [20]", "value": "1.4-fold"},
      {"measurement": "AUC change, total (free + bound): increase", "setting": "[7]; [20]", "value": "1.5-fold"},
      {"measurement": "Cmax change, free concentrations: decrease", "setting": "[7]; [20]", "value": 12, "unit": "%"},
      {"measurement": "Cmax change, total (free + bound): decrease", "setting": "[7]; [20]", "value": 6, "unit": "%"},
      {"measurement": "AUC change, free concentrations: increase", "setting": "[7]; [21]", "value": "16-fold"},
      {"measurement": "AUC change, total (free + bound): increase", "setting": "[7]; [21]", "value": "4.2-fold"},
      {"measurement": "Cmax change, free concentrations: increase", "setting": "[7]; [21]", "value": "5.4-fold"},
      {"measurement": "Cmax change, total (free + bound): increase", "setting": "[7]; [21]", "value": "1.3-fold"},
      {"measurement": "CYP2C19 inhibition", "setting": "CYP2C19", "value": "inhibitor"},
      {"measurement": "maternal exposure (AUC) multiple of human exposure with adverse developmental outcomes", "setting": "[8]", "value": "≥ 3", "unit": "times the human exposure"},
      {"measurement": "IC50", "setting": "ROCK2", "value": "[…]"},
      {"measurement": "metabolism by CYP2C8", "setting": "CYP2C8", "value": "to a lesser extent"},
      {"measurement": "IC50", "setting": "ROCK1", "value": "[…]"},
      {"measurement": "dose with spermatozoa degeneration", "setting": "[9]", "value": "[…]"},
      {"measurement": "activity in animal models of chronic GVHD", "setting": "[10]", "value": "demonstrates activity"},
      {"measurement": "12-lead ECG parameters", "setting": "[11]; individual participants", "value": "no clinically significant changes"},
      {"measurement": "vital signs parameters", "setting": "[11]; individual participants", "value": "no clinically significant changes"},
      {"measurement": "number of SAEs", "setting": "[11]; [22]", "value": 1},
      {"measurement": "number of TEAEs", "setting": "[11]; [22]", "value": 2, "unit": "TEAEs"},
      {"measurement": "participants reporting TEAEs", "setting": "[11]; moderate hepatic impairment group, 1 participant", "value": 12.5, "unit": "%"},
      {"measurement": "AEs related to study drug", "setting": "[11]; single oral 200 mg", "value": "no reports of AEs related to study drug"},
      {"measurement": "deaths", "setting": "[11]; single oral 200 mg", "value": "no reports of deaths"},
      {"measurement": "discontinuation due to an AE", "setting": "[11]; single oral 200 mg", "value": "no participants discontinued due to an AE"},
      {"measurement": "clinical chemistry, hematology, coagulation, or urinalysis", "setting": "[11]; throughout the study", "value": "no clinically significant changes"},
      {"measurement": "physical examinations", "setting": "[11]; throughout the study", "value": "no clinically significant findings"},
      {"measurement": "metabolism by CYP3A4", "setting": "CYP3A4", "value": "primarily metabolized"},
      {"measurement": "genotoxicity, micronucleus", "setting": "rat bone marrow", "value": "not genotoxic"},
      {"measurement": "doses with fetal malformations", "setting": "[12]; oral, pilot study, absence of anus and tail, omphalocele, dome shaped head", "value": "≥ 50", "unit": "mg/kg/day"},
      {"measurement": "maternal exposure (AUC) causing embryo-fetal mortality and malformations vs patients", "setting": "[12]; organogenesis", "value": "less than those in patients at the recommended dose"},
      {"measurement": "P-gp substrate", "setting": "P-gp [13]", "value": "substrate"},
      {"measurement": "genotoxicity, bacterial mutagenicity (Ames)", "setting": "bacteria", "value": "not genotoxic"},
      {"measurement": "dose with decreased follicular development in ovaries", "setting": "[14]; rats", "value": 275, "unit": "mg/kg/day"},
      {"measurement": "reversal of reproductive organ changes", "setting": "[14]; recovery period, rats and dogs", "value": "partially or fully reversed"},
      {"measurement": "increase in AUC with food", "setting": "[15]", "value": 2, "unit": "times"},
      {"measurement": "increase in Cmax with food", "setting": "[15]", "value": 2.2, "unit": "times"},
      {"measurement": "CYP2D6 inhibition", "setting": "CYP2D6 [16]", "value": "inhibitor"},
      {"measurement": "effect of proton pump inhibitors on belumosudil exposure", "setting": "[17]; coadministered proton pump inhibitors", "value": "decreases belumosudil exposure"},
      {"measurement": "effect of strong CYP3A inducers on belumosudil exposure", "setting": "[17]; coadministered strong CYP3A inducers", "value": "decreases belumosudil exposure"},
      {"measurement": "effect of itraconazole on belumosudil exposure", "setting": "[17]; healthy subjects, coadministered itraconazole", "value": "no clinically meaningful effect on belumosudil exposure"},
      {"measurement": "decrease in belumosudil AUC", "setting": "[17]; [23]", "value": 47, "unit": "%"},
      {"measurement": "decrease in belumosudil Cmax", "setting": "[17]; [23]", "value": 68, "unit": "%"},
      {"measurement": "decrease in belumosudil AUC", "setting": "[17]; [24]", "value": 80, "unit": "%"},
      {"measurement": "decrease in belumosudil Cmax", "setting": "[17]; [24]", "value": 87, "unit": "%"},
      {"measurement": "decrease in belumosudil AUC", "setting": "[17]; [25]", "value": 72, "unit": "%"},
      {"measurement": "decrease in belumosudil Cmax", "setting": "[17]; [25]", "value": 59, "unit": "%"},
      {"measurement": "genotoxicity, chromosome aberration", "setting": "[18]", "value": "[…]"},
      {"measurement": "CYP1A2 inhibition", "setting": "CYP1A2", "value": "inhibitor"},
      {"measurement": "maternal exposure (AUC) multiple of human exposure with adverse developmental outcomes", "setting": "[19]", "value": "≥ 0.07", "unit": "times the human exposure"}
    ]}
  ]
}
